Measurements published in patent US20250221979A1, “NOVEL HETEROCYCLIC COMPOUND” (SHOUYAO HOLDINGS (BEIJING) CO., LTD., priority 2022, published 2025).

Target: human MAT2A enzyme (Homo sapiens (Human), UniProt P31153)
Experiment: In vitro enzymatic inhibition activity assay on MAT2A (PiColorLock phosphate detection)
Assay type: biochemical
Conditions: purified human MAT2A 10 nM, ATP 50 μM, L-methionine 100 μM, 6 h at 23° C.; read-out: MAT2A inhibitory activity IC50
Procedure: Enzymatic activity assays of compounds of this patent against MAT2A (to detect half inhibitory concentration IC50 values of the compounds) were performed using the phosphate detection kit PiColorLockTM (ab270004, purchased from Abcam). This method utilized the principle that purified human MAT2A enzyme catalyzes the formation of S-adenosylmethionine (SAM) from L-methionine and ATP to release free phosphate, and used the spectrophotometric method to quantify phosphate, so as to determine the enzymatic activity of MAT2A. Compounds were diluted in a 10-fold gradient starting at 1 mM with 100% DMSO (for a total of 8 concentrations) and 2 μL of each concentration was added to 48 μL of reaction buffer (50 mM Tris-HCl PH 7.5, 50 mM KCl, 10 mM MgCl2, 0.01% Brij-35, 0.01% BSA, 1 mM DTT) and mixed well. The final diluted compound was prepared, and 5 μL of MAT2A enzyme (final concentration of 10 nM), 5 μL of ATP (final concentration of 50 μM), and 5 μL of L-methionine (final concentration of 100 μM) were added to each well of a 384-well plate (#3701, purchased from CORNING). After the 384-well plate was placed in the incubator at 23° C. for 6 h, 5 μL of PiColorLock reagent diluted Accelerator (dilution ratio 1:100) was added to each well, and the reaction was stopped by incubating in the incubator at 23° C. for 5 min. 2 μL of Stabiliser was added, the absorbance was read at 630 nm on BMG CLARIOstar, and the IC50 value of the compound was calculated by using GraphPad Prism software.
Under the conditions of this experiment, the inhibition of MAT2A by test compounds can be expressed as an IC50 value for the inhibition of the level of phosphate production during the enzymatic reaction.

human MAT2A enzyme, sequence (P31153 whole entry): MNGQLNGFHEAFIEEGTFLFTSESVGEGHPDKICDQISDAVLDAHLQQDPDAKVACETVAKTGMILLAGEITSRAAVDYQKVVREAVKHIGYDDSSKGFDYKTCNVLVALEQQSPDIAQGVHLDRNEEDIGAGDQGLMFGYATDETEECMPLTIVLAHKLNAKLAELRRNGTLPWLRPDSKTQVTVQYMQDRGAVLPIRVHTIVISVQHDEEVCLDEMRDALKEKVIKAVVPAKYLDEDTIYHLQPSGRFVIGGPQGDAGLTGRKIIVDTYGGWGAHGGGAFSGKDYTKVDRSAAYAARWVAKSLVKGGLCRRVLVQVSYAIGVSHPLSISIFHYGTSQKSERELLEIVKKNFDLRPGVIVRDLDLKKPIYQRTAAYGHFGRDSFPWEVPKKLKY

| SMILES | IC50 [nM] |
| --- | --- |
| [2H]C([2H])([2H])OC(=O)c1c(N)c2ccc(C(F)(F)F)cc2n(-c2ccc(C(C)O)cc2)c1=O (stereo not drawn) [Example 331, methyl-d3 4-amino-1-(4-(1-hydroxyethyl)phenyl)-2-oxo-7-(trifluoromethyl)-1,2-dihydroquinolin-3-carboxylate] | 2.49 |
| C=Cc1ccc(-n2c(=O)c(C(=O)OC)c(N)c3ccc(C(F)(F)F)cc32)cc1 [Example 132, methyl 4-amino-2-oxo-7-(trifluoromethyl)-1-(4-vinylphenyl)-1,2-dihydroquinoline-3-carboxylate] | 4.91 |
| COC(=O)c1c(N)c2ccc(Br)nc2n(-c2ccc(N)cc2C)c1=O [Example 304, methyl 4-amino-1-(4-amino-2-methylphenyl)-7-bromo-2-oxo-1,2-dihydro-1,8-naphthyridine-3-carboxylate] | 2.28 |
| COC(=O)c1c(N)c2ccc(C(F)(F)F)cc2n(-c2ccccc2)c1=O [Example 17, methyl 4-amino-7-trifluoromethyl-2-oxo-1-phenyl-1,2-dihydroquinoline-3-carboxylate] | 3.58 |
| C#Cc1ccc(-n2c(=O)c(C(=O)OC)c(N)c3ccc(C(F)(F)F)cc32)cc1 [Example 133, methyl 4-amino-1-(4-ethynylphenyl)-2-oxo-7-(trifluoromethyl)-1,2-dihydroquinoline-3-carboxylate] | 2.79 |
| COC(=O)c1c(N)c2ccc(C(F)(F)F)cc2n(-c2cccc3[nH]ccc23)c1=O [Example 229, methyl 4-amino-1-(1H-indol-4-yl)-2-oxo-7-(trifluoromethyl)-1,2-dihydroquinoline-3-carboxylate] | 4.18 |
| COC(=O)c1c(N)c2ccc(C(F)(F)F)cc2n(-c2ccccc2Cl)c1=O [Example 69, methyl 4-amino-1-(2-chlorophenyl)-2-oxo-7-(trifluoromethyl)-1,2-dihydro quinoline-3-carboxylate] | 6.39 |
| CCc1ccc(-n2c(=O)c(C(=O)OC)c(N)c3ccc(C(F)(F)F)cc32)cc1 [Example 155, methyl 4-amino-1-(4-ethylphenyl)-2-oxo-7-(trifluoromethyl)-1,2-dihydroquinoline-3-carboxylate] | 1.93 |
| COC(=O)c1c(N)c2ccc(Br)cc2n(-c2cnc(Cl)cc2C)c1=O [Example 161, methyl 4-amino-7-bromo-1-(6-chloro-4-methylpyridin-3-yl)-2-oxo-1,2-dihydroquinoline-3-carboxylate] | 4.67 |
| COC(=O)c1c(N)c2ccc(C(F)(F)F)cc2n(-c2ccc3c(c2)CCC3(C)O)c1=O (stereo not drawn) [Example 148, methyl 4-amino-1-(1-hydroxy-1-methyl-2,3-dihydro-1H-inden-5-yl)-2-oxo-7-(trifluoromethyl)-1,2-dihydroquinoline-3-carboxylate] | 2.83 |
| COC(=O)c1c(N)c2ccc(C(F)(F)F)cc2n(-c2cn[nH]c2)c1=O [Example 159, methyl 4-amino-2-oxo-1-(1H-pyrazol-4-yl)-7-(trifluoromethyl)-1,2-dihydroquinoline-3-carboxylate] | 2.87 |
| COC(=O)c1c(N)c2ccc(Br)cc2n(-c2cccc3nccn23)c1=O [Example 195, methyl 4-amino-7-bromo-1-(imidazo(3,2-a)pyridin-5-yl)-2-oxo-1,2-dihydro quinoline-3-carboxylate] | 4.91 |
| COC(=O)c1c(N)c2ccc(C)nc2n(-c2ccc([C@@H](C)O)cc2)c1=O [Example 343, methyl 4-amino-(1-(4-(1R)-1-hydroxyethyl)phenyl)-7-methyl-2-oxo-pyrido[2,3-b]pyridin-3-carboxylate] | 2.39 |
| COC(=O)c1c(N)c2ccc(Br)cc2n(-c2cccc3c(Cl)nccc23)c1=O [Example 216, methyl 4-amino-1-(1-chloroisoquinolin-5-yl)-7-bromo-2-oxo-1,2-dihydroquinoline-3-carboxylate] | 2.34 |
| COC(=O)c1c(N)c2ccc(C(F)(F)F)cc2n(-c2cccc3c[nH]nc23)c1=O [Example 267, methyl 4-amino-1-(2H-indazol-7-yl)-2-oxo-7-(trifluoromethyl)-1,2-dihydroquinoline-3-carboxylate] | 7.38 |
| Nc1c(C(=O)OC2CC2)c(=O)n(-c2ccccc2)c2cc(Cl)ccc12 [Example 49, cyclopropyl 4-amino-7-chloro-2-oxo-1-phenyl-1,2-dihydroquinolin-3-carboxylate] | 8.58 |

Molecules with a lower IC50, results first:

| IC50 [nM] | SMILES |
| --- | --- |
| 1.84 | COC(=O)c1c(N)c2ccc(Cl)cc2n(-c2ccc(N)cc2)c1=O [Example 322, methyl 4-amino-7-chloro-1-(4-aminophenyl)-2-oxo-1,2-dihydroquinoline-3-carboxylate] |
| 1.83 | COC(=O)c1c(N)c2ccc(C(F)(F)F)cc2n(-c2ccc([C@H](C)O)cc2)c1=O [Example 271, methyl 4-amino-1-(4-(1-(S)-hydroxyethyl)phenyl)-2-oxo-7-(trifluoromethyl)-1,2-dihydroquinoline-3-carboxylate] |
| 1.66 | COC(=O)c1c(N)c2ccc(C(F)(F)F)nc2n(-c2ccccc2)c1=O [Example 150, methyl 4-amino-2-oxo-1-phenyl-7-(trifluoromethyl)-1,2-dihydro-1,8-naphthyridine-3-carboxylate] |
| 1.55 | COC(=O)c1c(N)c2ccc(OC(C)C)nc2n(-c2ccc(Cl)cc2)c1=O [Example 388, methyl 4-amino-1-(4-chlorophenyl)-7-isopropoxy-2-oxo-1,2-dihydro-1,8-naphthyridine-3-carboxylate] |
| 1.45 | [2H]CC(O)c1ccc(-n2c(=O)c(C(=O)OC([2H])([2H])[2H])c(N)c3ccc(C(F)(F)F)nc32)cc1 (stereo not drawn) [Example 371, methyl-d3 4-amino-1-(4-(1-hydroxyethyl-2-d)phenyl)-2-oxo-7-(trifluoromethyl)-1,2-dihydro-1,8-naphthyridine-3-carboxylate] |
| 1.41 | COC(=O)c1c(N)c2ccc(Br)nc2n(-c2ccc(N)cc2)c1=O [Example 263, methyl 4-amino-1-(4-aminophenyl)-7-bromo-2-oxo-1,2-dihydro-1,8-naphthyridine-3-carboxylate] |
| 1.16 | COC(=O)c1c(N)c2ccc(C(F)(F)F)cc2n(-c2ccc(N)nc2)c1=O [Example 182, methyl 4-amino-1-(6-aminopyridin-3-yl)-2-oxo-7-(trifluoromethyl)-1,2-dihydroquinoline-3-carboxylate] |
| 1.05 | COC(=O)c1c(N)c2ccc(C3CC3)nc2n(-c2ccc(N)cc2)c1=O [Example 373, methyl 4-amino-1-(4-aminophenyl)-7-cyclopropyl-2-oxo-1,2-dihydro-1,8-naphthyridine-3-carboxylate] |
| 1 | COC(=O)c1c(N)c2ccc(C(F)F)nc2n(-c2ccc(C(C)O)cc2)c1=O (stereo not drawn) [Example 366, methyl 4-amino-7-(difluoromethyl)-1-(4-(1-hydroxyethyl)phenyl)-2-oxo-1,2-dihydro-1,8-naphthyridine-3-carboxylate] |
| 0.89 | COC(=O)c1c(N)c2ccc(Br)nc2n(-c2ccc(N)cc2Cl)c1=O [Example 295, methyl 4-amino-1-(4-amino-2-chlorophenyl)-2-oxo-7-bromo-1,2-dihydro-1,8-naphthyridine-3-carboxylate] |
| 0.43 | COC(=O)c1c(N)c2ccc(C(F)(F)F)cc2n(-c2ccc(OC)cc2)c1=O [Example 25, methyl 4-amino-1-(4-methoxyphenyl)-2-oxo-7-(trifluoromethyl)-1,2-dihydro quinoline-3-carboxylate] |
